Columns and labels:
[1] = molecular target: T1, CYP2C8 (Homo sapiens, UniProt P10632); assay: Reversible inhibition kinetics (Lineweaver-Burk), CYP2C8 in HLMs; type: in vitro ADME; parameters: 0.20 mg/mL HLMs or 0.20 mg/mL RLMs; from tissue; host or cells: human liver microsomes
T1 sequence (P10632 1-490): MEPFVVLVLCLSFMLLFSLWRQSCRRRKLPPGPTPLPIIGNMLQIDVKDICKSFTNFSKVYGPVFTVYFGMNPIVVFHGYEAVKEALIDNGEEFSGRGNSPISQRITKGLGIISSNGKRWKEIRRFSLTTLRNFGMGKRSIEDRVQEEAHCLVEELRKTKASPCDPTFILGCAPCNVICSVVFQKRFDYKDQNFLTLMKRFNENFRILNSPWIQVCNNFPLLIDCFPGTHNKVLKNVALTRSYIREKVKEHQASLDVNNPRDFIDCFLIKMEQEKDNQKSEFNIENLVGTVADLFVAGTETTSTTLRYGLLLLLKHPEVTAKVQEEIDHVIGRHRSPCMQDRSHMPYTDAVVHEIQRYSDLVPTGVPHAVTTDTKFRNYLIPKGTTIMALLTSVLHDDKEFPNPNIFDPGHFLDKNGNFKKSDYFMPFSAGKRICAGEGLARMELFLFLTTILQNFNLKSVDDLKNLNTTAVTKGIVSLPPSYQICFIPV
Description: (§1) The components of the incubation system were as follows: 0.20 mg/mL HLMs or 0.20 mg/mL RLMs, 0.1 M Tris-HCl, vortioxetine, and the probe substrates of each enzyme. In the study of Km’s (Michaelis–Menten constant) experiment, midazolam (1, 2, 5, 10, 20, 50 and 100 μM in HLMs and RLMs) corresponded to CYP3A4/3A; bupropion (10, 20, 50, 100, 200, 500, 1,000 and 2000 μM in HLMs; 1, 2, 5, 10, 20, 50, 100 and 200 μM in RLMs) corresponded to CYP2B6/2B; amodiaquine (5, 10, 20, 50, 100 and 200 μM in HLMs; 10, 20, 50, 100, 200, 500 μM in RLMs) corresponded to CYP2C8/CYP2C-1; losartan (1, 2, 5, 10, 20, 50, 100, 200 μM in HLMs; 10, 20, 50, 100, 200, 500 and 1,000 μM in RLMs) corresponded to CYP2C9/CYP2C-2; mephenytoin (20, 50, 100, 200, 500 and 1,000 μM in HLMs; 5, 10, 20, 50, 100, 200, 500 and 1,000 μM in RLMs) corresponded to CYP2C19/CYP2C-3; and dextromethorphan (1, 2, 5, 10, 20, 50 and 100 μM in HLMs and RLMs) corresponded to CYP2D6/CYP2D. After 5.0 min of preincubation in the shaking water bath, the reaction was started with the addition of 1.0 mM NADPH. The incubated temperature at 37°C for 30 min. After the incubation, the enzyme reaction was stopped by cooling at −80°C, and 200 μL of acetonitrile and 20 μL of internal standard diazepam (200 ng/mL) were added for protein precipitation. The solution was fully vortexed and centrifuged at 13,000 × rpm for 10 min, and the supernatant was collected for data analysis by UPLC-MS/MS.
The inhibitory mechanism of the inhibitor on the enzyme was generally used by different concentrations of the inhibitor against different concentrations of the probe substrate. The concentrations of the inhibitor and the concentrations of probe substrates in the experiment were estimated based on IC50 and Km values, respectively.
In HLMs, the concentrations of the substrates midazolam, bupropion, amodiaquine, losartan, mephenytoin, and dextromethorphan were 1, 2, 4, 8 μM; 10, 20, 40, 80 μM; 0.8, 1.5, 3, 6 μM; 2, 4, 8, 16 μM; 20, 45, 90, 180 μM; 2.5, 5, 10, 20 μM, respectively. Corresponding to the concentration of vortioxetine were 2, 4, 9, 18 μM; 2, 4, 8, 16 μM; 4, 8, 15, 30 μM; 5, 10, 25, 50 μM; 0.6, 1.2, 2.5, 5 μM; 4.5, 9, 18, 36 μM, respectively.
All experiments results were detected by UPLC-MS/MS, which equipped with a Waters Acquity UPLC system (Milford, MA, United States) and a Waters Xevo TQ-S triple quadrupole tandem mass spectrometer with an electrospray ionization source (Milford, MA, United States). The chromatographic separation was performed on a Waters ACQUITY UPLC BEH C18 column (2.1 × 50 mm, 1.7 μm, Waters Corp.) at 40°C. The mobile phase was consisted of acetonitrile (A) and 0.1% formic acid in water (B). The gradient elution at a flow rate of 0.4 mL/min was conducted as follows: 0–0.5 min, 10% A; 0.5–1.0 min, 10%–90% A; 1.0–2.0 min, 90% A; 2.0–2.1 min, 90%–10% A, and 2.1–3.0 min, 10% A. The relevant analysis parameters were shown in Table 1.
IC50 values and enzyme kinetic parameters were calculated by Graphpad Prism 6.0 (GraphPad software Inc., CA, United States). Lineweaver-Burk Plot was used to determine inhibitor patterns. Dixon plots of Ki values were obtained from the slope of the nonlinear regression line in the Lineweaver-Burk plot as a function of different inhibitor concentrations, while secondary plots for αKi were obtained from the y-intercept of the nonlinear regression line in Lineweaver-Burk Plot versus concentration of different inhibitors. Data for each experiment were expressed as mean ± SD (n = 3).

[2] = system: CYP2D; assay: Reversible inhibition kinetics (Lineweaver-Burk), CYP2D in RLMs; type: in vitro ADME, rat
Description: as §1, with “After 5.0 min of preincubation in the shaking water bath, the reaction was started with the addition of 1.0 mM NADPH. The incubated temperature at 37°C for 30 min. After the incubation, the enzyme reaction was stopped by cooling at −80°C, and 200 μL of acetonitrile and 20 μL of internal standard diazepam (200 ng/mL) were added for protein precipitation. The solution was fully vortexed and centrifuged at 13,000 × rpm for 10 min, and the supernatant was collected for data analysis by UPLC-MS/MS.” left out
All experiments results were detected by UPLC-MS/MS, which equipped with a Waters Acquity UPLC system (Milford, MA, United States) and a Waters Xevo TQ-S triple quadrupole tandem mass spectrometer with an electrospray ionization source (Milford, MA, United States). […]
IC50 values and enzyme kinetic parameters were calculated by Graphpad Prism 6.0 (GraphPad software Inc., CA, United States). […] Data for each experiment were expressed as mean ± SD (n = 3).

For `Cc1ccc(Sc2ccccc2N2CCNCC2)c(C)c1` [vortioxetine], the Ki ([1]; amodiaquine) was 6.96 µM, the α ([1]; amodiaquine) was 1.94 and the Inhibition type ([1]; amodiaquine, Lineweaver-Burk plot) was “noncompetitive inhibition”. For the same compound, the αKi ([1]; amodiaquine, secondary plot of y-intercepts) was 13.48 µM, the Ki at 30 min ([1]; human, human liver microsomes, probe amodiaquine) was 2.96 µM and the Inhibition type ([2]; dextromethorphan, Lineweaver-Burk plot) was “uncompetitive inhibition”. For the same compound, the Ki at 30 min ([2]; rat, rat liver microsomes, probe dextromethorphan) was 101 µM.
